These results are taken from patent US20240166765A1, “INFLAMMATORY DISEASE TREATMENT USING ANTI-TISSUE FACTOR ANTIBODIES” (Iconic Therapeutics LLC, priority 2020, published 2024).

For assay [1], the system named is chimeric human-rat TF constructs expressed on HEK293 cells. In words: Epitope binning, chimeric TF construct mapping (live cell staining assay). The format is binding. The method, then: To establish binding of the anti-human TF antibodies to the various TF constructs, HEK293 cells were transfected with a DNA plasmid that co-expresses the TF construct and a green fluorescent protein marker. For a subset of the antibodies, an antibody titration (a 12-point 1:3 dilution series starting at 250 nM) was evaluated on select TF constructs (See international PCT application PCT/US2019/012427 and U.S. utility application Ser. No. 16/959,652, incorporated herein by reference in their entirety). […] Two days after transfection, cells were collected from the tissue culture plate, stained with 15 μg/ml of the indicated anti-TF antibody, washed, stained with anti-human IgG-Fc Alexa Fluor 647 polyclonal antibody, washed, and stained with the viability dye 4′,6-Diamidino-2-Phenylindole, Dihydrochloride. Upon acquisition of 80,000 live events on a flow cytometer, live cells marked with the fluorescent marker were analyzed for the degree of staining by the anti-TF antibody. […] As used herein, the term “live cell staining assay” refers to the antibody binding assay used in this example.
When “Percentage antibody binding to TF construct relative to hTF” in Tables 51 and 52 was less than 50%, the antibody was considered a non-binder (0) in Tables 53 and 54.

The test system of assay [2] is thrombin generation (relipidated TF in normal pooled plasma). In words: Thrombin generation assay (TGA) without antibody pre-incubation. The format is biochemical, human. The following applies: Table 44. The protocol:
(§1) The TGA assay was performed using the calibrated-automated-thrombogram (CAT) instrument manufactured and distributed by STAGO. The test method design was equivalent to a standard CAT assay measurement, except that the plasma source was NPP in citrate/CTI. […] Relipidated TF was added to a 96-well assay plate, followed by addition of the antibody/NPP mixture. After a 10-min incubation or directly after combining the relipidated TF with antibody/NPP, thrombin generation was initiated by the addition of calcium and the thrombin substrate. The STAGO software was used to report the following parameters: Peak IIa (highest thrombin concentration generated [nM]); Lag Time (time to IIa generation [min]); ETP (endogenous thrombin potential, area under the curve [nM×min]); and ttPeak (time to Peak IIa [min]).
as §1, with “was normal pooled plasma (NPP)” for “was NPP”, “in citrate supplemented with corn trypsin inhibitor (citrate/CTI).” for “in citrate/CTI.”
(§2) TGA assay was performed using the calibrated-automated-thrombogram (CAT) instrument manufactured and distributed by STAGO (Diagnostica Stago SAS, Asnieres sur Seine, France). […] The anti-TF antibodies were titrated at 0, 10, 50 and 100 nM and mixed with NPP in citrate/CTI. Relipidated TF was added to a 96-well assay plate, followed by addition of the antibody/NPP mixture. After a 10-min incubation or directly after combining the relipidated TF with antibody/NPP, thrombin generation was initiated by the addition of calcium and the thrombin substrate. The STAGO software was used to report the following parameters: Peak IIa (highest thrombin concentration generated on the thrombin generation curve [nM]); Lag Time (time from assay start to the moment 10 nM of thrombin is formed [min]); ETP (endogenous thrombin potential, area under the curve [nM×min]); and ttPeak (time from assay start to Peak IIa [min]). […] As used herein, the term “thrombin generation assay” (TGA) refers to the TGA used in this example.

Assay [3] shares this test system. In words: Thrombin generation assay (TGA) with 10 min antibody pre-incubation. The format is biochemical, human. The method, then: as §1
as §1, with “was normal pooled plasma (NPP)” for “was NPP”, “in citrate supplemented with corn trypsin inhibitor (citrate/CTI).” for “in citrate/CTI.”
as §2

The subject of another assay is HUVECs. Nature of the assay: G2/M arrest (phospho-Histone H3) in HUVECs. The format is cell-based, human. The following applies: HCT-116 cells and HUVECs. The method, then:
To further understand the resistance of endothelial cells to anti-TF ADCs, cell cycle progression was evaluated 24 h after addition of the cytokines and TF-specific ADCs. Arrest at the G2/M phase of the cell cycle was analyzed as previously described in Theunissen et al, Methods Enzymol, 2006, 409:251-284. Briefly, low-passage HUVECs (Lifeline Cell Technologies, Frederick, MD, USA), propagated in VascuLife VEGF-Mv Endothelial media (Lifeline Cell Technologies), and HCT-116 cells were seeded on 12-well plates. The next day, media was removed and replaced with fresh media (no cytokines) or media containing 5 […] IL1-beta, 25 ng/mL TNF-alpha and 50 ng/mL VEGF (with cytokines). A titration of MMAE-linked ADCs or free MMAE was added to the cells. After 24 h of treatment, cells were fixed in ice-cold 70% ethanol. Subsequently, the cells were washed with flow cytometry buffer (PBS, 1% FBS, 0.1% Triton) and stained for 1 h with a 1:100 dilution of phospho-Histone H3 (Ser10) (D2C8 PE Conjugate, Cell Signaling Technology). After 2 washes, the cells were treated for 20 min with 100 μg/mL PureLink RNAse A (ThermoFisher Scientific), followed by the addition of the viability dye TO-PRO-3 Iodide (ThermoFisher Scientific). 40,000 events were collected on a Novocyte flow cytometer. In the Flowjo data analysis software cell doublets and aneuploid cells were excluded. […]

Assay [4] relates to DSS-colitis model, C57BL/6 mice. Nature of the assay: DSS-colitis model (2.5% DSS). The format is in vivo, mouse. The text has this: In a colitis model, the administration of dextran sulfate sodium (DSS) causes colitis-like pathologies due to toxicity to colonic epithelial cells, which leads to a compromised mucosal function and infiltration of neutrophils, macrophages and lymphocytes. It results in loss of epithelial barrier function, secretion of proinflammatory cytokines and chemokines, and the influx of cells with cytotoxic potential, such as neutrophils and inflammatory macrophages. It is not considered a T-cell-mediated process in the art.
On Day 0 of the study, 8-12 week old male C57BL/6 mice received either sterile water ad libitum (Group 1, n=5) or 2.5% (w/v) DSS dissolved into sterile water ad libitum (Groups 2-5, n=10 mice per group).
On Day 8, all animals received sterile water for the remainder of the experiment and were euthanized on day 10.
Throughout the study clinical observations were made daily. Body weight was measured and recorded daily (from Day 0 to Day 10). Body condition was also evaluated visually daily using the scoring system illustrated in FIG. 2. The stool consistency was determined qualitatively and blood in stool was measured daily using a hemoccult stool bleeding test. […]
Following euthanasia, the animal was measured (length determined) and weighed. Weight/length ratio was calculated for each animal. The animals were dissected and the weight of their spleens was determined. […]

In assay [5] the test system is LPS-induced acute lung injury model, BALB/c mice. Nature of the assay: LPS-induced acute lung injury model. In kind it is in vivo, mouse. The following applies: end of the study; 431D8 1 mg/kg IP; dexamethasone 3 mg/kg IP. The method, then: For this study, 48 male BALB/c mice were randomly and prospectively assigned to five groups: a group of six (n=6), a group of twelve (n=12), and three groups of ten (n=10 per group) animals each. On Day 0, animals in Groups 2-5 were dosed according to Table 63, 60 minutes prior to LPS administration. […] Animals were then released into a recovery cage until they woke up.
All animals were weighed and evaluated for respiratory distress daily (defined as an increase in respiratory rate and/or obvious respiratory effort). Animals with severe respiratory distress, or animals that lost greater than 20% of their total starting body weight, were euthanized within 2 hours of observation.
At 48 hours post-LPS challenge all animals were sacrificed with an overdose of xylazine and bronco-alveolar lavage (BAL) of the right lung only was performed (by tying off the left lung) for total and differential cell counts as well as total protein quantification and cytokine quantitation by Luminex. Lungs were then weighed (total lung weight and right lung weight). The right lung was frozen in liquid nitrogen and stored at −80° C. […] All slides were evaluated by a board-certified veterinary pathologist who used a scoring system to evaluate extent of lung injury and inflammation.

Square brackets hold non-standard residues; d marks the D form. Peptide text beside a SMILES is read from it. * marks the point of attachment. Dolaproine = CO[C@@H]([C@@H]1CCCN1)[C@@H](C)C(=O)O; Dil = CC[C@H](C)[C@H](NC)[C@@H](CC(=O)O)OC; X1 = C[C@@H](N*)[C@@H](O)c1ccccc1; NMeV = CN[C@H](C(=O)O)C(C)C

For “5G9: previously described TF-specific antibody”, the “Antibody binding to TF construct” value in assay [1] (Table 53, construct rTF) is 0 (less than 50%, the antibody was considered a non-binder (0)); in assay [1] (Table 54, construct rTF), 0 (less than 50%, the antibody was considered a non-binder (0)); in assay [1] (construct h78-107_r (21), human segment replaced by rat segment) it was 1 (between 50% and 150%, the antibody was considered a binder (1)); in assay [1] (construct h108-219_r (46), human segment replaced by rat segment), 0 (less than 50%, the antibody was considered a non-binder (0)); in assay [1] (construct h159-219_r (27), human segment replaced by rat segment), 0 (less than 50%, the antibody was considered a non-binder (0)); in assay [1] (construct r141-194_h (rat amino acid segment replaced by human segment, 20 amino acid changes)), 0 (less than 50%, the antibody was considered a non-binder (0)). The “Constructs not bound by antibody” value in assay [1] (chimeric human-rat TF constructs) is “rTF, h1-107_r, h108-219_r, h159-219_r, h159-189_r, h159-174_r, h167-174_r, h190-219_r”. In assay [1] (construct r141-194_h (rat amino acid segment replaced by human segment, 20 amino acid changes), 15 μg/ml antibody), the “Percent antibody binding to TF construct relative to hTF” value is listed as 32%. This compound had an ETP in assay [2] (Ab conc. 10 nM) of 1176 nM·min.
Consider “10H10: previously described TF-specific antibody [reference compound]”, for which the ETP in assay [2] (Ab conc. 10 nM) came to 2036 nM·min; in assay [2] (Ab conc. 50 nM) it was 1978 nM·min; in assay [2] (Ab conc. 100 nM), 1945 nM·min; in assay [3] (Ab conc. 10 nM), 1807 nM·min; in assay [3] (Ab conc. 50 nM), 1754 nM·min; in assay [3] (Ab conc. 100 nM), 1795 nM·min.
Turning to `CC[C@H](C)[C@@H]([C@@H](CC(=O)N1CCC[C@H]1[C@H](OC)[C@@H](C)C(=O)N[C@H](C)[C@@H](O)c1ccccc1)OC)N(C)C(=O)[C@@H](NC(=O)[C@@H](NC)C(C)C)C(C)C` [MMAE, monomethyl auristatin E] (H-[NMeV]V[Dil][Dolaproine]-X1), in the assay with HUVECs, the “phosphorylation of histone H3” value is “increase the phosphorylation of histone H3 to a similar extent in both HCT-116 cells and HUVECs”.
For the compound Cyclosporine [CsA, reference compound], the body condition score entry in assay [4] (after Day 7) was “most significant deterioration in body condition”. For the same compound, the “weight loss relative to baseline” value in assay [4] (by Day 4, CsA 80 mg/kg once daily oral gavage) is given as approximately 20%.
Regarding Dexamethasone [reference compound], the “weight loss relative to baseline” value in assay [5] is given as “about 2%”.
